Source: PubChem BioAssay (NCI)
Several values for one entry are separate records, joined by “and”; a condition that tells them apart may be missing. Equal values may be shown once.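 Where inhibition never reached the appropriate level, the endpoint shown equals the highest concentration tested. Otherwise, values were interpolated linearly from a five-concentration, 48-hour dose response in 96-well plates. GI50 = concentration required for 50% inhibition of growth. TGI denotes the concentration required for complete inhibition of growth.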

Tests used:
Experiment in all cases: NCI-60 cell line screen, 48 h
[1] = system: CCRF-CEM leukemia
[2] = system: COLO 205 colon
[3] = system: IGROV1 ovarian
[4] = system: KM12 colon
[5] = system: MDA-MB-231 breast
[6] = system: MDA-MB-435
[7] = system: NCI/ADR-RES ovarian
[8] = system: OVCAR-3 ovarian
[9] = system: RXF 393 renal
[10] = system: T-47D breast
[11] = system: UACC-257 melanoma

SMILES	TGI [1] [µM]	TGI [2] [µM]	TGI [3]	TGI [4]	TGI [5]	TGI [6] [µM]	TGI [7] [µM]	TGI [8]	TGI [9]	TGI [10]	TGI [11] [µM]	GI50 [1] [µM]	GI50 [3]	GI50 [5]	GI50 [7]	GI50 [10]
O=[N+]([O-])c1cc(C=NC23CC4CC(CC(C4)C2)C3)ccc1Cl	7.97	> 70.3	47.5 µM	55 µM	24.7 µM	42.2	70.9	33.9 µM	37.2 µM	40.8 µM	39.6	–	–	–	–	–
Cc1ccnc(NS(=O)(=O)c2ccc(N=[N+]=[N-])cc2)n1	> 49.7	> 100	> 100 µM	> 100 µM	> 100 µM	> 100	> 100	> 100 µM	> 100 µM	> 100 µM	> 100	–	–	–	–	–
Nc1nc(-c2ccccc2)nc2oc(-c3cccs3)nc12	> 100	> 100	> 100 µM	> 100 µM	> 100 µM	> 100	> 100	> 100 µM	> 100 µM	> 100 µM	> 100	–	–	–	–	–
COc1ccc(C(=C2C=CC=C2)c2ccc(OC)cc2)cc1	53	43.5	> 100 µM	> 100 µM	34.8 µM	> 100	> 100	> 100 µM	61.7 µM	57.7 µM	> 100	–	–	–	–	–
COC(=O)C1=C(C(=O)OC)SC(=C2SCSC3=C2SC(C(=O)OC)=C(C(=O)OC)C32SC3=C(CCCC3)S2)S1	> 100	> 100	> 100 µM	> 100 µM	> 100 µM	> 100	> 100	> 100 µM	70 µM	> 100 µM	> 100	–	–	–	–	–
NC1(c2cc3ccccc3s2)CCCC1	42.3	43.1	> 100 µM	> 100 µM	> 100 µM	> 100	> 100	> 100 µM	> 100 µM	> 100 µM	81.2	–	–	–	–	–
Cc1ccc(N(Cc2ccccc2)Cc2ccccc2)cc1	65.4	> 100	> 100 µM	> 100 µM	> 100 µM	> 100	> 100	> 100 µM	> 100 µM	> 100 µM	> 100	–	–	–	–	–
NC(N)=Nc1ccc(CC(N)NCC(=O)O)cc1 (stereo unspecified)	> 25	> 25	> 25 µM	> 25 µM	> 25 µM	> 25	> 25	> 25 µM	> 25 µM	> 25 µM	> 25	–	–	–	–	–
C[C@]12CC[C@H](O)CC1=CC[C@@H]1[C@@H]2CC[C@]2(C)C(=N/N)/C(=N\O)C[C@@H]12	> 100	> 100	75.7 µM	> 100 µM	> 100 µM	5	> 100	> 100 µM	> 100 µM	> 100 µM	> 100	–	–	–	–	–
N#CC(NCc1cccc(CNC(C#N)c2ccccc2)c1)c1ccccc1 (stereo unspecified)	36.5	42.6	41.8 µM	56.6 µM	74.2 µM	> 100	> 100	> 100 µM	> 100 µM	> 100 µM	> 100	–	–	–	–	–
CC(=O)N(C(=O)CC(=O)N1N=C(c2ccccc2)C(N=Nc2ccccc2[N+](=O)[O-])C1=O)c1ccc(Cl)cc1 (stereo unspecified)	> 10	> 10	> 10 µM	> 10 µM	> 10 µM	> 10	> 10	> 10 µM	> 10 µM	> 10 µM	> 10	–	–	–	–	–
CCOC(=O)c1c(CN2CCCC2)n(-c2ccccc2)c2cc(Br)c(O)cc12	34.8	22.4	33.5 µM	32.2 µM	39.7 µM	33.2	57.9	30.3 µM	25.6 µM	47 µM	32.8	–	–	–	–	–
c1ccc2c(c1)Cn1c-2nc2ccccc21	> 100	> 100	> 100 µM	> 100 µM	> 100 µM	> 100	> 100	> 100 µM	> 100 µM	> 100 µM	> 100	–	–	–	–	–
Nc1nc2c(c(-c3cccc(Cl)c3)n1)COC/C2=C\c1cccc(Cl)c1	> 100	> 100	> 100 µM	> 100 µM	> 100 µM	> 100	> 100	> 100 µM	> 100 µM	> 100 µM	> 100	–	–	–	–	–
S=C(N/N=C(/c1ccccc1)c1ccccn1)N(Cc1ccccn1)Cc1ccccn1	> 100	2.02	2.03 µM	2.31 µM	2.72 µM	3.56	1.44	1.71 µM	2.74 µM	2.82 µM	2.42	–	–	–	–	–
COc1ncc(/C=C2\OC(=O)c3ccccc32)c(OC)n1	> 100	> 100	> 100 µM	> 100 µM	> 100 µM	> 100	> 100	> 100 µM	> 100 µM	> 100 µM	> 100	–	–	–	–	–
C[C@]12CCC3C4=C(CCC3C1CCC2=O)C(=O)[C@H]1O[C@H]1C4=O (stereo partly specified)	4.07	9.23	4.74 µM	18.3 µM	3.64 µM	24.9	17.3	3.15 µM	3.18 µM	2.78 µM	34.1	–	–	–	–	–
Oc1ccccc1CNCc1nc2ccccc2[nH]1	> 100	82.7	> 100 µM	> 100 µM	> 100 µM	> 100	61.5	> 100 µM	> 100 µM	> 100 µM	> 100	–	–	–	–	–

SMILES	TGI [1] [µM]	TGI [2] [µM]	TGI [3]	TGI [4]	TGI [5]	TGI [6] [µM]	TGI [7] [µM]	TGI [8]	TGI [9]	TGI [10]	TGI [11] [µM]	GI50 [1] [µM]	GI50 [3]	GI50 [5]	GI50 [7]	GI50 [10]
Cc1ccc(-c2csc(=Nc3ccccc3)n2NC(=O)c2ccncc2)cc1	> 67.5	82.5	> 100 µM	> 100 µM	> 100 µM	> 100	> 90.5	> 100 µM	> 100 µM	58.7 µM	> 100	–	–	–	–	–
CN(C)CCNS(=O)(=O)c1ccc(N)cc1	> 100	> 100	> 100 µM	> 100 µM	> 100 µM	> 100	> 100	31 µM	> 100 µM	> 100 µM	> 100	–	–	–	–	–
Cc1cc(-c2nc3ccc(F)cc3s2)ccc1NC(=O)[C@H](C)N	6.23	23.8	20 µM	15.3 µM	22.6 µM	5.82	28.5	23.7 µM	21.7 µM	> 37.4 µM	11.8	–	–	–	–	–
Cc1ccccc1C(=N)c1ccccc1Cc1cccc2ccccc12	42.7	76.9	> 100 µM	41.9 µM	> 100 µM	52.9	88.6	26.6 µM	20.3 µM	38.4 µM	> 100	–	–	–	–	–
CC(=O)c1c2c(c3ccccc3c1O)O[C@@H]1OCC[C@H]21	> 100	> 100	> 100 µM	> 100 µM	> 100 µM	> 100	> 100	> 100 µM	> 100 µM	> 100 µM	> 100	–	–	–	–	–
CC1=Nc2ccccc2OC(C)=C1N=Nc1ccc2nc(C)[nH]c2c1	> 100	> 100	> 100 µM	> 100 µM	> 100 µM	> 100	> 100	> 100 µM	> 100 µM	> 100 µM	> 100	–	–	–	–	–
[N-]=[N+]=NC(c1ccccc1)(c1ccccc1)c1ccccc1	55.4	27.8	63.7 µM	46.8 µM	31.2 µM	44	34.1	42.5 µM	32.9 µM	38.4 µM	31.4	–	–	–	–	–
Cc1ccc(-c2cc(-c3ccco3)c(C#N)c(=S)n2C2OC(CO)C(O)C(O)C2O)cc1 (stereo unspecified)	99.1	> 100	74.5 µM and > 100 µM	76.9 µM and > 100 µM	35.4 µM and 88.1 µM	> 100	> 100	55.9 µM and 90.7 µM	45.4 µM and 45.3 µM	84.9 µM and > 100 µM	> 100	23.2	21.4 µM and 47.1 µM	8.83 µM and 24 µM	33.8 µM and > 100 µM	23.6 µM and 53 µM
C=C1CCN2CC[C@@H](OC(=O)/C(C)=C\C)[C@@H]12	> 100	> 100	> 100 µM	> 100 µM	> 100 µM	> 100	> 100	> 100 µM	> 100 µM	> 100 µM	> 100	–	–	–	–	–
CC(C)=CCC[C@@H](C)c1c(O)c(O)c(C)c2nccnc12	> 36.5	> 80.7	> 81.5 µM	> 72 µM	> 100 µM	> 100	17.7	> 100 µM	> 89.1 µM	> 79.8 µM	> 100	–	–	–	–	–
Nc1nccc(-c2c[nH]c3cc(Br)ccc23)n1	> 100	> 100	> 100 µM	80.9 µM	> 100 µM	80.4	> 100	> 100 µM	49.3 µM	> 100 µM	86.7	–	–	–	–	–
CCCCCC1=CC(=O)C1(Cl)Cl	6.15	26.7	48 µM	27.9 µM	31 µM	33	86.6	27 µM	35.3 µM	> 52.2 µM	33.3	–	–	–	–	–
O=c1[nH]c(=S)[nH]c2c1C(c1ccc([N+](=O)[O-])cc1)c1c([nH]c(=S)[nH]c1=O)O2	> 100	> 100	> 100 µM	> 100 µM	> 100 µM	> 100	> 100	> 100 µM	> 100 µM	> 100 µM	> 100	–	–	–	–	–
O=[N+]([O-])c1ccc2[nH]nc(OCc3ccccc3Cl)c2c1	> 100	> 100	> 100 µM	> 100 µM	> 100 µM	> 100	> 100	73.9 µM	48.2 µM	42.9 µM	> 100	–	–	–	–	–
C(=C(c1ccc(OC2CCCCO2)cc1)c1ccc(OC2CCCCO2)cc1)c1ccccc1 (stereo unspecified)	6.66	1.6	1.71 µM	0.677 µM	1.52 µM	1.7	2.92	1.75 µM	2.25 µM	2.14 µM	1.66	–	–	–	–	–
N#CC(Cc1ccccc1)N(CCC1=CCCCC1)C(c1ccccc1)c1ccccc1 (stereo unspecified)	> 100	> 100	> 100 µM	> 100 µM	> 100 µM	> 100	> 100	> 100 µM	> 100 µM	> 100 µM	> 100	–	–	–	–	–
Cc1oc2c(cc(O)c3cc(O)ccc32)c2cccc1-2	> 100	> 100	> 100 µM	> 100 µM	> 100 µM	> 100	> 100	> 100 µM	> 100 µM	> 100 µM	> 100	–	–	–	–	–
Cc1cc(C)nc(NS(=O)(=O)c2ccc(NC(=O)c3ccc4nc5ccccc5c(Nc5ccc(S(N)(=O)=O)cc5)c4c3)cc2)n1	78.3	> 100	> 100 µM	> 100 µM	> 100 µM	> 100	> 100	> 100 µM	> 100 µM	> 100 µM	> 100	–	–	–	–	–
